Experimental data taken from ChEMBL document CHEMBL4842375, “Discovery of a Potent Glutathione Peroxidase 4 Inhibitor as a Selective Ferroptosis Inducer” (J Med Chem, 2021).
pIC50: −log10 of the molar value. Calls of active or inactive are those of the source. No cut-off for these calls is given here.

Assays:
4T1 [1] = assay: Cytotoxicity against mouse 4T1 cells assessed as reduction in cell viability incubated for 48 hrs by MTT assay; type: functional, cell-based; settings: 4T1, 48 h
MCF7 = assay: Cytotoxicity against human MCF7 cells assessed as reduction in cell viability incubated for 48 hrs by MTT assay; type: functional, cell-based; settings: MCF7, 48 h
HT-1080 [2] = assay: Cytotoxicity against human HT-1080 cells assessed as reduction in cell viability incubated for 48 hrs by MTT assay; type: functional, cell-based; settings: HT-1080, 48 h
HT-1080 [3] = assay: Cytotoxicity against human HT-1080 cells assessed as reduction in cell viability incubated for 48 hrs in presence of Fer-1 by MTT assay; type: functional, cell-based; settings: HT-1080, 48 h
[4] = Selectivity index, ratio of IC50 for cytotoxicity against human HT-1080 cells in presence of Fer-1 to IC50 for cytotoxicity against human HT-1080 cells; type: functional
[5] = target: T1, Phospholipid hydroperoxide glutathione peroxidase GPX4 (Homo sapiens) (UniProt P36969); assay: Inhibition of GPX4 in mouse 4T1 cells assessed as decrease in intracellular GPX4 activity at 5 uM after 6 hrs; type: cell-based
T1 sequence (whole entry): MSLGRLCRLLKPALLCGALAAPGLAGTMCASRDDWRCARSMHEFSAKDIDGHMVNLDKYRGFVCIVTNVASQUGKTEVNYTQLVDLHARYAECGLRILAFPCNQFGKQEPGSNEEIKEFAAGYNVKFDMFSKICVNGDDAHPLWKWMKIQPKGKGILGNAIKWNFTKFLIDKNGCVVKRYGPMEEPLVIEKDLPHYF

4T1 [6] = assay: Effect on intracellular GSH level in mouse 4T1 cells assessed as reduction in GSH level; type: functional, cell-based

inhibition [5] [%] | SMILES | pIC50 (4T1 [1]) | pIC50 (MCF7) | pIC50 (HT-1080 [2]) | pIC50 (HT-1080 [3]) | Ratio IC50 [4] | Activity (4T1 [6])
– | CCOC(=O)c1ccc(N(C(=O)CCl)C(C(=O)NCCc2ccccc2)c2cccc3[nH]ccc23)cc1 (stereo not drawn) | 5.53 | 4.83 | 6.40 | 5.89 | 3.2 | –
– | O=C(NCCc1ccccc1)C(c1c[nH]c2ccccc12)N(C(=O)CCl)c1ccc(F)cc1 (stereo not drawn) | 5.04 | 4.87 | – | – | – | –
– | CCOC(=O)c1ccc(N(C(=O)CCl)C(C(=O)NCCc2ccccc2Cl)c2c[nH]c3ccccc23)cc1 (stereo not drawn) | 5.64 | 4.87 | 6.05 | 5.49 | 3.6 | –
11.8 | COC(=O)c1ccc([C@H]2c3[nH]c4ccccc4c3C[C@H](C(=O)OC)N2C(=O)CCl)cc1 | 5.43 | 4.87 | 5.92 | 5.43 | 3.1 | inactive
– | CCOC(=O)c1ccc(N(C(=O)CCl)C(C(=O)NCc2ccccc2)c2c[nH]c3ccccc23)cc1 (stereo not drawn) | 5.31 | 4.92 | 5.96 | 5.19 | 5.8 | –
– | CCOC(=O)c1ccc(N(C(=O)CCl)C(C(=O)NCCc2cccc(Cl)c2)c2c[nH]c3ccccc23)cc1 (stereo not drawn) | 5.70 | 5.03 | 6.43 | 5.35 | 12.2 | –
– | CCOC(=O)c1ccc(N(C(=O)CCl)C(C(=O)NCCc2cccc(OC)c2)c2c[nH]c3ccccc23)cc1 (stereo not drawn) | 5.63 | 4.95 | 6.39 | 5.31 | 11.9 | –
– | CCOC(=O)c1ccc(N(C(=O)CCl)C(C(=O)NCCc2ccccc2)c2ccnn2C)cc1 (stereo not drawn) | 4.99 | 5.05 | 5.68 | 5.60 | 1.2 | –
– | C=CCNC(=O)C(c1c[nH]c2ccccc12)N(C(=O)CCl)c1ccc(C(=O)OCC)cc1 (stereo not drawn) | 5.67 | 4.90 | 6.13 | 5.34 | 6.2 | –
– | CCOC(=O)c1ccc(N(C(=O)CCl)C(C(=O)NCCc2ccccc2)c2c[nH]c3ncccc23)cc1 (stereo not drawn) | 5.03 | 5.16 | 5.49 | 5.28 | 1.7 | –
– | CCOC(=O)c1ccc(N(C(=O)CCl)C(C(=O)NCCc2ccccc2)c2csc3ccccc23)cc1 (stereo not drawn) | 5.83 | 4.90 | 6.55 | 5.33 | 16.8 | –
– | COc1ccc(N(C(=O)CCl)C(C(=O)NCCc2ccccc2)c2c[nH]c3ccccc23)cc1 (stereo not drawn) | 5.01 | 4.82 | – | – | – | –
– | CCOC(=O)c1ccc(N(C(=O)CCl)C(C(=O)NCCc2ccccc2)c2c[nH]c3ccccc23)cc1 (stereo not drawn) | 5.71 | 5.06 | 6.52 | 5.35 | 14.7 | –
– | CCOC(=O)c1ccc(CN(C(=O)CCl)C(C(=O)NCc2ccccc2)c2c[nH]c3ccccc23)cc1 (stereo not drawn) | 5.00 | 4.69 | 5.52 | 5.31 | 1.63 | –
– | CCOC(=O)c1ccc(N(C(=O)CCl)C(C(=O)NC2CCCCC2)c2c[nH]c3ccccc23)cc1 (stereo not drawn) | 5.33 | 5.05 | 6.03 | 5.46 | 3.7 | –
– | O=C(NCCc1ccccc1)C(c1csc2ccccc12)N(C(=O)CCl)c1ccc(-c2nnco2)cc1 (stereo not drawn) | 6.09 | 5.15 | 6.70 | 5.41 | 19.5 | –
– | COc1ccc(N(C(=O)CCl)C(C(=O)NCCc2ccccc2)c2cccs2)cc1Cl (stereo not drawn) | 5.60 | 5.00 | 6.18 | 5.14 | 11.1 | –
– | Cc1noc(-c2ccc(N(C(=O)CCl)C(C(=O)NCCc3ccccc3)c3c[nH]c4ccccc34)cc2)n1 (stereo not drawn) | 5.71 | 4.88 | 6.48 | 5.38 | 12.8 | –
– | CCOC(=O)c1ccc(CN(C(=O)CCl)C(C(=O)NCCc2ccccc2)c2c[nH]c3ccccc23)cc1 (stereo not drawn) | 5.23 | 4.83 | 5.64 | 5.36 | 1.91 | –
– | CCOC(=O)c1ccc(N(C(=O)CCl)C(C(=O)NC(C)(C)C)c2c[nH]c3ccccc23)cc1 (stereo not drawn) | 5.49 | 4.92 | 6.37 | 5.38 | 9.8 | –
– | Cc1noc(-c2ccc(N(C(=O)CCl)C(C(=O)NCCc3ccccc3)c3csc4ccccc34)cc2)n1 (stereo not drawn) | 6.12 | 5.08 | 6.68 | 5.46 | 16.7 | –
– | O=C(NCCc1ccccc1)C(c1c[nH]c2ccccc12)N(C(=O)CCl)c1ccc(Br)cc1 (stereo not drawn) | 5.19 | 4.96 | – | – | – | –
– | CCOC(=O)c1ccc(N(C(=O)CCl)C(C(=O)NCCc2ccc(Cl)cc2)c2c[nH]c3ccccc23)cc1 (stereo not drawn) | 5.68 | 4.79 | 6.37 | 5.37 | 10 | –
– | O=C(NCCc1ccccc1)C(c1c[nH]c2ccccc12)N(C(=O)CCl)c1ccc(-c2cnco2)cc1 (stereo not drawn) | 5.98 | 5.24 | 6.80 | 5.41 | 24.5 | –
– | CCOC(=O)c1ccc(CN(C(=O)CCl)C(C(=O)NC(C)(C)C)c2c[nH]c3ccccc23)cc1 (stereo not drawn) | 5.03 | 4.81 | 4.80 | 4.80 | 1 | –
– | O=C(NCCc1ccccc1)C(c1c[nH]c2ccccc12)N(C(=O)CCl)c1ccc(-c2nnco2)cc1 (stereo not drawn) | 6.05 | 5.23 | 6.46 | 5.34 | 12.9 | –
– | CCOC(=O)c1ccc(N(C(=O)CCl)C(C(=O)NCCc2cccc(C(F)(F)F)c2)c2c[nH]c3ccccc23)cc1 (stereo not drawn) | 5.66 | 4.99 | 6.25 | 5.30 | 9 | –
– | CCOC(=O)c1ccc(N(C(=O)CCl)C(C(=O)NCCc2ccccc2)c2cc[nH]n2)cc1 (stereo not drawn) | 5.35 | 4.82 | 6.15 | 5.37 | 6.1 | –
– | N#Cc1ccc(N(C(=O)CCl)C(C(=O)NCCc2ccccc2)c2c[nH]c3ccccc23)cc1 (stereo not drawn) | 5.03 | 5.16 | 6.12 | 5.38 | 5.6 | –
